# Source: patent US11299496B2, “Ligands for alpha-7 nicotinic acetylcholine receptors and methods of treating neurological and inflammatory conditions” (Northeastern University, priority 2014, dated 2022)
# What was measured:
# formalin-injected mice = experiment: Formalin test (intraplantar formalin, paw licking, paw edema); type: in vivo, mouse
# Procedure: A formalin test was carried out in an open plexiglas cage, with a mirror placed at a 45° angle behind the cage to allow an unobstructed view of the paws. Mice were allowed to acclimate for 15 min in the test cage prior to injection. Each animal was injected intraplantar with 20 μl of 2.5% formalin to the right hindpaw. Each mouse was then immediately placed in the test cage. Up to two mice at one time were observed during 0 to 5 min after injection (phase 1) and during 20-45 min post injection (phase 2). The period between the two phases of nociceptive responding is generally considered to be a phase of weak activity. The amount of time spent licking the injected paw was recorded with a digital stopwatch.
# Further, the antinociceptive activity of drugs in phase II of the formalin test and their anti-allodynic response in the CCI model was tested. Mice received vehicle or methyllycaconatine (MLA, 10 mg/kg) prior to vehicle or an ED84 dose of the ago-PAM/PAM (determined from a dose-response experiment using the formalin intraplantar injection model). […] The MLA results were confirmed by testing the ED84 dose of the test compounds in the alpha-7 KO and wild type mice. Finally, it was tested whether tolerance develops to the antinociceptive effects of alpha-7 nAChR ago-PAM following 7 days of repeated injections of its ED84 dose. Mice were given the following treatments: vehicle (7 days of vehicle administration); acute alpha-7 nAChR test compounds (6 days of vehicle administration followed by alpha-7 nAChR ago-PAM on the last day); and repeated alpha-7 nAChR test compounds (7 days of alpha-7 nAChR PAM or ago-PAM).
# normal mice = experiment: Morris water maze memory test; type: in vivo, mouse
# Procedure: This test was carried out in normal mice using a Morris water maze.
smiles,measurement,setting,value
"NS(=O)(=O)c1ccc2c(c1)[C@H]1C=CC[C@H]1[C@@H](c1ccc(Br)cc1)N2 [Compound 1, (3aR,4S,9bS)-4-(4-bromophenyl)-3a,4,5,9b-tetrahydro-3H-cyclopenta[c]quinoline-8-sulfonamide]",activity in alpha-7 nAChR knockout mice,formalin-injected mice; FIG. 3D,inactive
same,effect of GAT107 after MLA,"formalin-injected mice; MLA 10 mg/kg prior, FIG. 3C",reversed the effects of GAT107
same,nociceptive behavior of formalin phase II,"formalin-injected mice; given i.v., FIG. 3A",dose-dependently and significantly block the nociceptive behavior of formalin phase II
same,nociceptive behavior of formalin phase II,"formalin-injected mice; given orally, FIG. 3B",dose-dependently and significantly block the nociceptive behavior of formalin phase II
same,paw edema induced by formalin intraplantar injection,"formalin-injected mice; mouse, in vivo",reduced the paw edema
same,memory defects in scopolamine-treated mice,normal mice; FIG. 6,dose dependently reversed the memory defects
same,"latency to find the platform, compound given alone",normal mice; normal mice,reduced the latency for the mice to find the platform
